Values joined by “and” are separate entries in the source; they are usually repeats but may differ in a detail not shown here. Identical values can stand only once. Like-named read-outs stand apart in the source and are kept apart here.
Assays:
NRAS G12C = NRAS G12C (Homo sapiens (Human), UniProt P01111+P62937, G12C); experiment: Ras-Raf (BRAF RBD) disruption / FRET / MOA assay, NRAS G12C; assay type: biochemical
Outline: (§1)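 Compounds, top final concentration 30 μM in 10-point 3-fold series, incubated 3 hours at 25° C with nucleotide-loaded Ras, cyclophilin A and BRAF RBD.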

KRAS WT = KRAS WT (Homo sapiens (Human), UniProt P01116+P62937); experiment: Ras-Raf (BRAF RBD) disruption / FRET / MOA assay, KRAS WT; assay type: biochemical; settings: read-out: IC50* KRAS WT FRET data
Outline: as §1

K-Ras G13C = K-Ras G13C (Homo sapiens (Human), UniProt P01116+P62937, G13C); experiment: Ras-Raf (BRAF RBD) disruption / FRET / MOA assay, KRAS G13C; assay type: biochemical; settings: KRAS G13C; Ras-Raf disruption/FRET/MOA assay; read-out: IC50* KRAS G13C FRET data
Outline: as §1

KRAS G12V = KRAS G12V (Homo sapiens (Human), UniProt P01116+P62937, G12V); experiment: Ras-Raf (BRAF RBD) disruption / FRET / MOA assay, KRAS G12V; assay type: biochemical; settings: read-out: IC50* KRAS G12V FRET data
Outline: as §1

KRAS Q61H = KRAS Q61H (Homo sapiens (Human), UniProt P01116+P62937, Q61H); experiment: Ras-Raf (BRAF RBD) disruption / FRET / MOA assay, KRAS Q61H; assay type: biochemical; settings: Ras-Raf disruption/FRET/MOA assay; class symbols; read-out: KRAS Q61H FRET data IC50
Outline: (§2)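 TR-FRET disruption of nucleotide-loaded Ras binding to BRAF RBD via compound-driven ternary complex with cyclophilin A. Compound as 10-point 3-fold series from 30 μM final, 3 h at 25° C, then anti-His Eu-W1024 (10 nM) and anti-GST allophycocyanin (50 nM) for 1.5 h. IC50 from decreased FRET ratio versus DMSO.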

KRAS G12S = KRAS G12S (Homo sapiens (Human), UniProt P01116+P62937, G12S); experiment: Ras-Raf (BRAF RBD) disruption / FRET / MOA assay, KRAS G12S; assay type: biochemical; settings: Ras-Raf disruption/FRET/MOA assay; class symbols; read-out: KRAS G12S FRET data IC50
Outline: as §1

NRAS WT = NRAS WT (Homo sapiens (Human), UniProt P01111+P62937); experiment: Ras-Raf (BRAF RBD) disruption / FRET / MOA assay, NRAS WT; assay type: biochemical; settings: read-out: IC50* NRAS WT FRET data
Outline: as §2

KRAS G13D = KRAS G13D (Homo sapiens (Human), UniProt P01116+P62937, G13D); experiment: Ras-Raf (BRAF RBD) disruption / FRET / MOA assay, KRAS G13D; assay type: biochemical
Outline: as §1

NRAS Q61R = NRAS Q61R (Homo sapiens (Human), UniProt P01111+P62937, Q61R); experiment: Ras-Raf (BRAF RBD) disruption / FRET / MOA assay, NRAS Q61R; assay type: biochemical; settings: NRAS Q61R; Ras-Raf disruption/FRET/MOA assay; read-out: IC50* NRAS Q61R FRET data
Outline: as §2

NCI-H358 (K-Ras G12C) = experiment: CellTiter-Glo cell viability assay, NCI-H358; assay type: cell-based, human; settings: class symbols
Outline: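 Steps: compound dispensed into wells holding cells; incubation to day 5; ~30 min room-temperature equilibration; luminescence read; sample signal divided by mean DMSO signal, times 100; four-parameter logistic curve fit.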

KRAS G12D = KRAS G12D (Homo sapiens (Human), UniProt P01116+P62937, G12D); experiment: Ras-Raf (BRAF RBD) disruption / FRET / MOA assay, KRAS G12D; assay type: biochemical; settings: Ras-Raf disruption/FRET/MOA assay; class symbols; read-out: KRAS G12D FRET data IC50
Outline: as §1

K-Ras G12C = K-Ras G12C (Homo sapiens (Human), UniProt P01116+P62937, G12C); experiment: Ras-Raf (BRAF RBD) disruption / FRET / MOA assay, KRAS G12C; assay type: biochemical; settings: KRAS G12C, Ras-Raf disruption/FRET/MOA assay
Outline: as §1

[1] = read-out: IC50* NRAS G12C FRET data
[2] = read-out: IC50* KRAS G13D FRET data
[3] = Homo sapiens, NCI-H358, 120 h, NCI-H358, 5-day treatment, read-out: Additional H358 Cell Viability assay data (K-Ras G12C, IC50)
[4] = read-out: IC50* KRAS G12C FRET data

KRAS G12S, sequence (P01116-2 other isoform, or with tags, fused parts or gaps G12S): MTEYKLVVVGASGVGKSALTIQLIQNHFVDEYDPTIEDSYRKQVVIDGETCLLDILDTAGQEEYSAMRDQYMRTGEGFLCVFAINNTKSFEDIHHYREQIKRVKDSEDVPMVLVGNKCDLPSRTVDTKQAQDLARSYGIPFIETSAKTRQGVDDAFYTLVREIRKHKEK
KRAS G12S, sequence (P62937 whole entry): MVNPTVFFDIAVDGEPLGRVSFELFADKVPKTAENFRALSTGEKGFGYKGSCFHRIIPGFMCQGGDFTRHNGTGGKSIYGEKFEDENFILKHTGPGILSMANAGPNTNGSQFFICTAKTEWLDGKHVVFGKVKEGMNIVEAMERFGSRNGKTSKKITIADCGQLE
KRAS G13D, sequence (P01116-2 other isoform, or with tags, fused parts or gaps G13D): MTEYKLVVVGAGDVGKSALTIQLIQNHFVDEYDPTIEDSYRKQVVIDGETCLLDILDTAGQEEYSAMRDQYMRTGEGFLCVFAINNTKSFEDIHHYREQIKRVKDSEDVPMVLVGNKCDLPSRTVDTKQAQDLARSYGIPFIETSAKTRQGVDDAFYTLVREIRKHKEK
KRAS G13D, sequence (P62937 whole entry): as the sequence (P62937 whole entry) above
NRAS Q61R, sequence (P01111 whole entry Q61R): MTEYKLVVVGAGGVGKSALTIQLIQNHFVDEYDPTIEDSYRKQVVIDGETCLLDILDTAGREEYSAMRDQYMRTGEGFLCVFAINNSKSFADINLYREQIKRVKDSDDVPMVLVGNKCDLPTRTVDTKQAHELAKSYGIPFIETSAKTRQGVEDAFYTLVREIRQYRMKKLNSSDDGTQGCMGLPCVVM
NRAS Q61R, sequence (P62937 whole entry): as the sequence (P62937 whole entry) above
K-Ras G12C, sequence (P01116-2 other isoform, or with tags, fused parts or gaps G12C): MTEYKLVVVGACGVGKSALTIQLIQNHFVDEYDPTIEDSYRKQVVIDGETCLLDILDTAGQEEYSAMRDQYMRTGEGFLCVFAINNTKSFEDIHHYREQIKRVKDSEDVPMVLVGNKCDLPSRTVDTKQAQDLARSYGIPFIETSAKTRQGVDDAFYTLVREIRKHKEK
K-Ras G12C, sequence (P62937 whole entry): as the sequence (P62937 whole entry) above
KRAS G12V, sequence (P01116-2 other isoform, or with tags, fused parts or gaps G12V): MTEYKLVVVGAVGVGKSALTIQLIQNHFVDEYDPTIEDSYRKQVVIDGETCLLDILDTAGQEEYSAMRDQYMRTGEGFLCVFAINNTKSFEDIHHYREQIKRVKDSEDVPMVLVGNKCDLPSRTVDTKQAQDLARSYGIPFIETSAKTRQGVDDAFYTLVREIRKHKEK
KRAS G12V, sequence (P62937 whole entry): as the sequence (P62937 whole entry) above
NRAS WT, sequence (P01111 whole entry): as the sequence (P01111 whole entry Q61R) above, with R61Q counted along it
NRAS WT, sequence (P62937 whole entry): as the sequence (P62937 whole entry) above
KRAS WT, sequence (P01116-2 other isoform, or with tags, fused parts or gaps): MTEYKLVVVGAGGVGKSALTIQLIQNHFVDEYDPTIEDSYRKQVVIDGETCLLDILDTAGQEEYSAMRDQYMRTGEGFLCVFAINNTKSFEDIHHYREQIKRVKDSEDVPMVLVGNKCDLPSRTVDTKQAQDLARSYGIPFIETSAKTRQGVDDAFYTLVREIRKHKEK
KRAS WT, sequence (P62937 whole entry): as the sequence (P62937 whole entry) above
K-Ras G13C, sequence (P01116-2 other isoform, or with tags, fused parts or gaps G13C): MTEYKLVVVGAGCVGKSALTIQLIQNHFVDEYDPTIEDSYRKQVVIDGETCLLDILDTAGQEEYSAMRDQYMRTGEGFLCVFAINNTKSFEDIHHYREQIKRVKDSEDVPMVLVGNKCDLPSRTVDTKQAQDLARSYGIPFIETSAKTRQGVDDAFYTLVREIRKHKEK
K-Ras G13C, sequence (P62937 whole entry): as the sequence (P62937 whole entry) above
NRAS G12C, sequence (P01111 whole entry G12C): as the sequence (P01111 whole entry Q61R) above, with G12C, R61Q counted along it
NRAS G12C, sequence (P62937 whole entry): as the sequence (P62937 whole entry) above
KRAS Q61H, sequence (P01116-2 other isoform, or with tags, fused parts or gaps Q61H): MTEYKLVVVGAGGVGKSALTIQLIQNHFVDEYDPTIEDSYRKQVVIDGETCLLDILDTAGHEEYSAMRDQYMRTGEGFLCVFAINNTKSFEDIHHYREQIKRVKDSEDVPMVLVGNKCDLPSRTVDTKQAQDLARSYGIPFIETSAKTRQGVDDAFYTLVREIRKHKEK
KRAS Q61H, sequence (P62937 whole entry): as the sequence (P62937 whole entry) above
KRAS G12D, sequence (P01116-2 other isoform, or with tags, fused parts or gaps G12D): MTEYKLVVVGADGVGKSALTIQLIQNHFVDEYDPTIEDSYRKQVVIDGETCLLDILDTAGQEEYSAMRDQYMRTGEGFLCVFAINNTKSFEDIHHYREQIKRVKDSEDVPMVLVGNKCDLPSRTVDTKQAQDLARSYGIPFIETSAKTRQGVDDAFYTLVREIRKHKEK
KRAS G12D, sequence (P62937 whole entry): as the sequence (P62937 whole entry) above

IC50 (NCI-H358 (K-Ras G12C); NCI-H358, 5-day treatment, read-out: Additional H358 Cell Viability assay data (K-Ras G12C, IC50)) [µM]	SMILES	IC50 (NRAS G12C; [1])	IC50 (KRAS WT)	IC50 (K-Ras G13C)	IC50 (KRAS G12V)	IC50 (KRAS Q61H) [nM]	IC50 (KRAS G12S)	IC50 (NRAS WT) [nM]	IC50 (KRAS G13D; [2])	IC50 (NRAS Q61R) [nM]	IC50 (NCI-H358 (K-Ras G12C); [3]) [µM]	IC50 (KRAS G12D)	IC50 (K-Ras G12C; [4])	IC50 (NRAS G12C; IC50* NRAS G12C FRET data) [nM]	IC50 (KRAS G13D; IC50* KRAS G13D FRET data) [nM]	IC50 (NCI-H358 (K-Ras G12C); Homo sapiens, NCI-H358, 120 h, read-out: Additional H358 Cell Viability assay data (K-Ras G12C, IC50, uM), NCI-H358, 5-day treatment) [µM]	IC50 (K-Ras G12C; IC50* KRAS G12C FRET data) [nM]
	C=CC(=O)N1CC[C@H](C(=O)N(C)[C@H](C(=O)N[C@H]2Cc3cc(O)cc(c3)-c3ccc4c(c3)c(c(-c3cccnc3[C@H](CC)OC)n4CC)CC(C)(C)COC(=O)[C@@H]3CCCN(N3)C2=O)C(C)C)C1 (atropisomer, axis not shown) [Example A181]	10 to 100 nM and 100 to 1000 nM	100 to 1000 nM and 1000 to 10000 nM	100 to 1000 nM and 1000 to 10000 nM	100 to 1000 nM and 1000 to 10000 nM	10 to 100	1000 to 10000 nM and 10 to 100 nM	100 to 1000	100 to 1000 nM and 1000 to 10000 nM	100 to 1000	0.01 to 0.1	1000 to 10000 nM and > 10000 nM	10 to 100 nM and 100 to 1000 nM				
	C=CC(=O)N1CC[C@H](C(=O)N(C)[C@H](C(=O)N[C@H]2Cc3nc(ns3)-c3ccc4c(c3)c(c(-c3cccnc3[C@H](C)OC)n4CC)CC(C)(C)COC(=O)[C@@H]3CCCN(N3)C2=O)C(C)C)C1 (atropisomer, axis not shown) [Example A202]	1000 to 10000 nM	> 10000 nM	> 10000 nM	> 10000 nM	1000 to 10000	1000 to 10000 nM	1000 to 10000	> 10000 nM	> 10000	0.01 to 0.1	> 10000 nM	1000 to 10000 nM				
0.01 to 0.1	C=CC(=O)N1CC[C@H](C(=O)N(C)[C@H](C(=O)N[C@H]2Cc3cc(O)cc(c3)-c3ccc4c(c3)c(c(-c3cccnc3[C@@H](OC)C3CC3)n4CC)CC(C)(C)COC(=O)[C@@H]3CCCN(N3)C2=O)C(C)C)C1 (atropisomer, axis not shown) [Example A207]	10 to 100 nM	100 to 1000 nM	100 to 1000 nM		10 to 100	100 to 1000 nM	100 to 1000	100 to 1000 nM	100 to 1000		1000 to 10000 nM	10 to 100 nM				
	C=CC(=O)N1CC[C@H](C(=O)N(C)[C@H](C(=O)N[C@H]2Cc3cc(O)cc(c3)-c3ccc4c(c3)c(c(-c3cccnc3[C@@H]3CCCO3)n4CC)CC(C)(C)COC(=O)[C@@H]3CCCN(N3)C2=O)C(C)C)C1 (atropisomer, axis not shown) [Example A281]	10 to 100 nM and 100 to 1000 nM	100 to 1000 nM	10 to 100 nM and 100 to 1000 nM	100 to 1000 nM	10 to 100	100 to 1000 nM	100 to 1000	100 to 1000 nM	100 to 1000	0.01 to 0.1	1000 to 10000 nM	10 to 100 nM and 100 to 1000 nM				
	C=CC(=O)N1CC[C@H](C(=O)N(C)[C@H](C(=O)N[C@H]2Cc3nc(n(C)n3)-c3ccc4c(c3)c(c(-c3cccnc3[C@H](C)OC)n4CC)CC(C)(C)COC(=O)[C@@H]3CCCN(N3)C2=O)C(C)C)C1 (atropisomer, axis not shown) [Example A314]	100 to 1000 nM	1000 to 10000 nM	100 to 1000 nM	1000 to 10000 nM	100 to 1000	1000 to 10000 nM	1000 to 10000	1000 to 10000 nM	100 to 1000	0.1 to 1	1000 to 10000 nM	100 to 1000 nM				
	C=CC(=O)N1CC[C@H](C(=O)N(C)[C@H](C(=O)N[C@H]2Cc3csc(n3)-c3ccc4c(c3)c(c(-c3cccnc3[C@H](C)OC)n4CC)CC(C)(C)COC(=O)[C@@H]3CCCN(N3)C2=O)C(C)C)C1 (atropisomer, axis not shown) [Example A330]	100 to 1000 nM	1000 to 10000 nM	1000 to 10000 nM	1000 to 10000 nM	100 to 1000	1000 to 10000 nM	1000 to 10000	1000 to 10000 nM	1000 to 10000	0.01 to 0.1	1000 to 10000 nM	100 to 1000 nM				
	C=CC(=O)N1CC[C@]2(C1)CN(C(=O)N(C)[C@H](C(=O)N[C@H]1Cc3nc(cs3)-c3ccc4c(c3)c(c(-c3cccnc3[C@H](C)OC)n4CC)CC(C)(C)COC(=O)[C@@H]3CCCN(N3)C1=O)C(C)C)CCO2 (atropisomer, axis not shown) [Example A354]	10 to 100 nM	100 to 1000 nM	100 to 1000 nM	100 to 1000 nM	10 to 100	100 to 1000 nM	100 to 1000	100 to 1000 nM	100 to 1000	0.01 to 0.1	100 to 1000 nM	100 to 1000 nM				
	C=CC(=O)N1CC[C@@]2(C1)OCN([C@H](C(=O)N[C@H]1Cc3cccc(c3)-c3ccc4c(c3)c(c(-c3cccnc3[C@H](C)OC)n4CC)CC(C)(C)COC(=O)[C@@H]3CCCN(N3)C1=O)C(C)C)C2=O (atropisomer, axis not shown) [Example A358]	100 to 1000 nM	100 to 1000 nM	100 to 1000 nM	1000 to 10000 nM	100 to 1000	1000 to 10000 nM	100 to 1000	1000 to 10000 nM	1000 to 10000	0.01 to 0.1	1000 to 10000 nM	100 to 1000 nM				
	CO[C@@H](C)c1ncccc1-c1c2c3cc(ccc3n1CC(F)(F)F)-c1csc(n1)C[C@H](NC(=O)CCOC1CN(C(=O)C#CC(C)(C)N3CCC3)C1)C(=O)N1CCC[C@H](N1)C(=O)OCC(C)(C)C2 (atropisomer, axis not shown) [Example A363]	10 to 100 nM	1000 to 10000 nM	1000 to 10000 nM	1000 to 10000 nM	1000 to 10000	1000 to 10000 nM	1000 to 10000	1000 to 10000 nM	1000 to 10000	0.01 to 0.1	> 10000 nM	10 to 100 nM				
	C=CC(=O)N(C)C[C@H]1CCN1C(=O)N(C)[C@H](C(=O)N[C@H]1Cc2nc(cs2)-c2ccc3c(c2)c(c(-c2cccnc2[C@H](C)OC)n3CC)CC(C)(C)COC(=O)[C@@H]2CCCN(N2)C1=O)C(C)C (atropisomer, axis not shown) [Example A369]	100 to 1000 nM	100 to 1000 nM	100 to 1000 nM	100 to 1000 nM	100 to 1000	100 to 1000 nM	100 to 1000	1000 to 10000 nM	100 to 1000	0.01 to 0.1	1000 to 10000 nM	100 to 1000 nM				
	C=CC(=O)N1CC[C@H](C(=O)N(C)[C@H](C(=O)N[C@H]2Cc3cccc(c3)-c3ccc4c(c3)c(c(-c3cccnc3[C@H](C)OC)n4CC)CC(C)(C)COC(=O)[C@@H]3CCCN(N3)C2=O)C(C)C)[C@H]1C (atropisomer, axis not shown) [Example A373]	100 to 1000 nM	1000 to 10000 nM	100 to 1000 nM	100 to 1000 nM	100 to 1000	1000 to 10000 nM	1000 to 10000	1000 to 10000 nM	1000 to 10000	0.01 to 0.1	1000 to 10000 nM	100 to 1000 nM				
	C=CC(=O)N1CC[C@H](C(=O)N(C)[C@H](C(=O)N[C@H]2Cc3cc(O)cc(c3)-c3ccc4c(c3)c(c(-c3ncn(C)c3[C@H](C)OC)n4CC)CC(C)(C)COC(=O)[C@@H]3CCCN(N3)C2=O)C(C)C)C1 [Example A301]		> 10000 nM	1000 to 10000 nM	1000 to 10000 nM	1000 to 10000	1000 to 10000 nM			> 10000		> 10000 nM		100 to 1000	> 10000	0.1 to 1	100 to 1000

From patent US11566007B2, “Ras inhibitors” (Revolution Medicines, Inc., priority 2019, dated 2023)
